Reference: patent US10513521B2, “Compositions and methods for inhibiting BMP” (The Brigham and Women's Hospital, Inc., priority 2014, dated 2019)
Positions count from the first letter of the chain named. Like-named read-outs stand apart in the source and are kept apart here.

Assays:
[1] = target: T1, ALK2 (Mus musculus, UniProt P37172); test: HTRF pSMAD1 cell-based ALK2 assay (C2C12 cells, BMP6 as agonist)
T1 construct: The C2C12 cell line was selected for the measurement of ALK2 activity using BMP6 as the agonist; host or cells: C2C12
T1 sequence (P37172 21-509): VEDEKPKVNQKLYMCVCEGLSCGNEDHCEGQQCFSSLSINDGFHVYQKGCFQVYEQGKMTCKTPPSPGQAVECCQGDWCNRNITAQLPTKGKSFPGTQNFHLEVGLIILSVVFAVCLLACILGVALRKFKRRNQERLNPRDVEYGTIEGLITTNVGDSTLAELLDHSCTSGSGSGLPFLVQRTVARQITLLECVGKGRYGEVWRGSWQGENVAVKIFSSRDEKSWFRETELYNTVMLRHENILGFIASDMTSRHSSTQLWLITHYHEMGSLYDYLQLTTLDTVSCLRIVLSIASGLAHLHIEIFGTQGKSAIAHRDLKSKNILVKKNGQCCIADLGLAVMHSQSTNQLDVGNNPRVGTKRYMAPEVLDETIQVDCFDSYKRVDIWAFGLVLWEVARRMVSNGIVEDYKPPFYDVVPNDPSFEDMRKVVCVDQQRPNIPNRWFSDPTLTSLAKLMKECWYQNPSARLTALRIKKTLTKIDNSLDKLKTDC
In short: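 Phospho-SMAD1 HTRF readout, detection incubated overnight at room temperature. Before that: starved cells in 0.1% FBS for 4 h, 30 min compound pretreatment, then 30 min agonist, BMP6 on C2C12 or BMP9 on BAOEC.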

[2] = Cell-based assay, TGFb1 (Cell IC50)
[3] = target: ALK1 (Homo sapiens, UniProt P37023); test: TR-FRET enzymatic ALK kinase assay, ALK1
Sequence of ALK1 (P37023 22-503): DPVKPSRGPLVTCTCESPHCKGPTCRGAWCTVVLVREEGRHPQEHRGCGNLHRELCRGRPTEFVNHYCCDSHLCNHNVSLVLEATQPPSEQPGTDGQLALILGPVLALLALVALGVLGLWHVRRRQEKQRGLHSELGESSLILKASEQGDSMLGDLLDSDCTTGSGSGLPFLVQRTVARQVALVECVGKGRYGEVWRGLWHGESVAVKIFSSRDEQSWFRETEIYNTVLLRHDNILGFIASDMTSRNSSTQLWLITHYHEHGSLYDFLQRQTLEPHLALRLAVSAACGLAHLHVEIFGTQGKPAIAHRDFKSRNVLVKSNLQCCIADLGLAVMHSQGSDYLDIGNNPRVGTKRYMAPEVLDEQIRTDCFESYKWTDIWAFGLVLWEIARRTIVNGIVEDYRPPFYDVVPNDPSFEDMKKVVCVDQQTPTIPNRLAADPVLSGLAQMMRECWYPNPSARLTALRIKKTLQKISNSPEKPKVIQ
Protocol: (§1) Briefly, the ALKs enzymatic assay was initiated by dispense 2.5 μl enzyme in 1× kinase reaction buffer. The assay plate was then added with compounds followed by incubation at room temperature for 10 minutes. Then 2.5 μl/well substrate was added.

[4] = target: T2, ALK2 (Homo sapiens, UniProt Q04771); test: TR-FRET enzymatic ALK kinase assay, ALK2
T2 sequence (Q04771 21-509): T1 sequence (P37172 21-509) with V1M, Q10P, I121L, E162D, S310P
Protocol: as §1

[5] = target: ALK3 (Homo sapiens, UniProt P36894); test: TR-FRET enzymatic ALK kinase assay, ALK3
Sequence of ALK3 (P36894 24-532): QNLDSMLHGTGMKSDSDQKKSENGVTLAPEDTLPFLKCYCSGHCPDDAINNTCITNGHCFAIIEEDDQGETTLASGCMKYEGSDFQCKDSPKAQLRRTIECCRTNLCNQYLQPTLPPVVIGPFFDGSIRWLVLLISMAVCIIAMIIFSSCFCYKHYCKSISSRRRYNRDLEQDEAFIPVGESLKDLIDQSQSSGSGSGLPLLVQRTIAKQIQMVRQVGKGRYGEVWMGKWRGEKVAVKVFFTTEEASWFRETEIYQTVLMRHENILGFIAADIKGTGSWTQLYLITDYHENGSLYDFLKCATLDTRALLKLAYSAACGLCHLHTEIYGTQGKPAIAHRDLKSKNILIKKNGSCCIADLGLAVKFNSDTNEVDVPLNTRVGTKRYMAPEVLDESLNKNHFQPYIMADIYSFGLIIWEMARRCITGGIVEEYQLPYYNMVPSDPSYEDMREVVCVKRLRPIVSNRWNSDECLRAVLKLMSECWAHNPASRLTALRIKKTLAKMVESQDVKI
Protocol: as §1

[6] = target: ALK6 (Homo sapiens, UniProt O00238); test: TR-FRET enzymatic ALK kinase assay, ALK6
Sequence of ALK6 (O00238 14-502): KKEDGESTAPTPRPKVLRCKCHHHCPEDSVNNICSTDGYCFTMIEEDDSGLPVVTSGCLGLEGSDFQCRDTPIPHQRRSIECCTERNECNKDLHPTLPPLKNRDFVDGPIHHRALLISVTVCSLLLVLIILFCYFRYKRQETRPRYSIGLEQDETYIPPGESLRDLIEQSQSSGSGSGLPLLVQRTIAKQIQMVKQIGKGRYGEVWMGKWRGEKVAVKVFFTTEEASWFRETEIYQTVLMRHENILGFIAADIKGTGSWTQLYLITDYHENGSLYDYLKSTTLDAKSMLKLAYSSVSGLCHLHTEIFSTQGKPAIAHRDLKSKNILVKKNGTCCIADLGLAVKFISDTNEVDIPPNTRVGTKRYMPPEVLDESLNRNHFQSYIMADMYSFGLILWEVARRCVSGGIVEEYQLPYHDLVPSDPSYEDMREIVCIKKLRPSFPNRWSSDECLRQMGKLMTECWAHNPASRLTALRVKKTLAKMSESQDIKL
Protocol: as §1

[7] = target: T3, ALK4 (Homo sapiens, UniProt P36896); test: TR-FRET enzymatic ALK kinase assay, ALK4
T3 sequence (P36896 24-505): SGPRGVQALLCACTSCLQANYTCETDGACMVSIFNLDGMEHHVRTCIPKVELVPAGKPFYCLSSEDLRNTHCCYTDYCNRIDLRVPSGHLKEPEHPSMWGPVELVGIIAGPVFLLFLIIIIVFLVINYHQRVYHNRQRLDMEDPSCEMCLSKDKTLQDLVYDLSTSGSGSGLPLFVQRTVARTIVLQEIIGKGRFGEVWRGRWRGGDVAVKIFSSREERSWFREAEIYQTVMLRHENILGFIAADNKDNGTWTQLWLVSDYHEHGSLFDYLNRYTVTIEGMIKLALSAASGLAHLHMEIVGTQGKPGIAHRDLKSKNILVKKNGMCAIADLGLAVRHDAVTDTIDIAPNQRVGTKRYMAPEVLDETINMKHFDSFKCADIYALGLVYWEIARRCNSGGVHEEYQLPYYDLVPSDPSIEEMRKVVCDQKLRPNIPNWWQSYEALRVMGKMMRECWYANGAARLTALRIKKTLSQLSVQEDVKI
Protocol: as §1

[8] = target: T4, ALK5 (Homo sapiens, UniProt P36897); test: TR-FRET enzymatic ALK kinase assay, ALK5
T4 sequence (P36897 34-503): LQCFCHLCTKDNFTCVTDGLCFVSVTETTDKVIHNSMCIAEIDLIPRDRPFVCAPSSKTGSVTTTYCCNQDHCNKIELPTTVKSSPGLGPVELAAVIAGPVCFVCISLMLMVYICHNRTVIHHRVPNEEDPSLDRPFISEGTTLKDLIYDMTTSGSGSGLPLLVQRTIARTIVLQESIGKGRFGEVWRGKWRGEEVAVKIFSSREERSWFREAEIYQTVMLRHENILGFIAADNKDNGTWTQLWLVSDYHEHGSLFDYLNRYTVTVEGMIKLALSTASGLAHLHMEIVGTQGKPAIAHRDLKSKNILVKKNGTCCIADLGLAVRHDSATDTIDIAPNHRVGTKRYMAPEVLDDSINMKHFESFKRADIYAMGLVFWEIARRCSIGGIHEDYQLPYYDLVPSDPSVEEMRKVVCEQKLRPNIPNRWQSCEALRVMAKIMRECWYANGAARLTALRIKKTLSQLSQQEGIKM
Protocol: Six ALK kinase enzyme assays were developed for determination of compound activities on ALK1, ALK2, ALK3, ALK4, ALK5 and ALK6.
as §1

[9] = cell-based assay, BMP6, read-out: Cell IC50 BMP6
[10] = HTRF assay, BMP6 as agonist, C2C12 cells, read-out: BMP6 HTRF

Row | IC50 [1, 9] [µM] | IC50 [2] [µM] | IC50 [3] [µM] | IC50 [4] [µM] | IC50 [5] [µM] | IC50 [6] [µM] | IC50 [1, 10] [µM] | IC50 [7] [µM] | IC50 [8] [µM] | SMILES
1 | 0.033 | 10.8 | 9.6 | 5.31 | – | – | – | – | – | C[C@@H]1CNC[C@H](C)N1c1ccc(-c2cnc3c(-c4ccc(CN)c5ccccc45)cnn3c2)cc1 [Compound 23, (4-(6-(4-((2R,6S)-2,6-dimethylpiperazin-1-yl)phenyl)pyrazolo[1,5-a]pyrimidin-3-yl)naphthalen-1-yl)methanamine]
2 | 3.19 | 15.3 | 19.6 | 1.76 | 18.2 | – | – | – | – | CNC(=O)c1ccc(-c2cnn3cc(-c4ccc(N5CCNCC5)cc4)cnc23)c2ccccc12 [Compound 3, N-methyl-4-(6-(4-(piperazin-1-yl)phenyl)pyrazolo[1,5-a]pyrimidin-3-yl)-1-naphthamide]
3 | 2.07 | 5.54 | 8.08 | 6.56 | 10.8 | 20.7 | – | – | – | CN(C)C(=O)c1cccc2c(-c3cnn4cc(-c5ccc(N6CCNCC6)cc5)cnc34)cccc12 [Compound 8, N,N-dimethyl-5-(6-(4-(piperazin-1-yl)phenyl)pyrazolo[1,5-a]pyrimidin-3-yl)-1-naphthamide]
4 | 0.593 | 10.6 | 15.4 | 2.83 | – | 76.4 | – | – | – | CN(C)C(=O)c1ccc(-c2cnn3cc(-c4ccc(N5CCNCC5)cc4)cnc23)c2ccccc12 [Compound 4, N,N-dimethyl-4-(6-(4-(piperazin-1-yl)phenyl)pyrazolo[1,5-a]pyrimidin-3-yl)-1-naphthamide]
5 | – | – | 0.032 | 0.003 | 0.14 | 3.1 | 0.24 | 1.3 | 5.9 | CC(O)c1cccc(-c2cnn3cc(-c4ccc(CN5CCCC5)cc4)cnc23)c1 (centres unmarked) [Compound 165, 1-(3-(6-(4-(pyrrolidin-1-ylmethyl)phenyl)pyrazolo[1,5-a]pyrimidin-3-yl)phenyl)ethanol]
6 | 0.836 | – | 0.69 | 0.35 | > 10 | > 10 | – | > 10 | > 10 | CS(=O)(=O)c1cccc(-c2cnn3cc(-c4ccc(C(F)(F)CN5CCOCC5)cc4)cnc23)c1 [Compound 121, 4-(2,2-difluoro-2-(4-(3-(3-(methylsulfonyl)phenyl)pyrazolo[1,5-a]pyrimidin-6-yl)phenyl)ethyl)morpholine]
7 | 2.2 | – | 0.47 | 0.11 | > 10 | > 10 | – | > 10 | > 10 | CN(C)CCOc1ccc(-c2cnc3c(-c4ccc(S(N)(=O)=O)c5ccccc45)cnn3c2)cc1 [Compound 61, 4-(6-(4-(2-(dimethylamino)ethoxy)phenyl)pyrazolo[1,5-a]pyrimidin-3-yl)naphthalene-1-sulfonamide]
8 | 0.155 | – | 0.083 | 0.033 | 0.31 | 2.1 | – | 2.6 | 8.4 | C[C@@H]1CNC[C@H](C)N1c1ccc(-c2cnc3c(-c4cccc(C(N)=O)c4)cnn3c2)cc1 [Compound 67, 3-(6-(4-((2R,6S)-2,6-dimethylpiperazin-1-yl)phenyl)pyrazolo[1,5-a]pyrimidin-3-yl)benzamide]
9 | 5.5 | – | 0.39 | 0.13 | 2 | > 10 | – | > 10 | > 10 | C[C@@H]1CNC[C@H](C)N1c1ccc(-c2cnc3c(-c4ccc(Cl)c5ccccc45)cnn3c2)cc1 [Compound 44, 3-(4-chloronaphthalen-1-yl)-6-(4-((2R,6S)-2,6-dimethylpiperazin-1-yl)phenyl)pyrazolo[1,5-a]pyrimidine]
10 | 22 | – | > 10 | 5.1 | > 10 | > 10 | – | > 10 | > 10 | C[C@@H]1CNC[C@H](C)N1c1ccc(-c2cnc3c(-c4ccc(CS(N)(=O)=O)cc4)cnn3c2)cc1 [Compound 71, (4-(6-(4-((2R,6S)-2,6-dimethylpiperazin-1-yl)phenyl)pyrazolo[1,5-a]pyrimidin-3-yl)phenyl)methanesulfonamide]
11 | 0.38 | 6.82 | 0.276 | 0.038 | 0.88 | – | – | – | – | N/C(=N/O)c1ccc(-c2cnn3cc(-c4ccc(N5CCNCC5)cc4)cnc23)cc1 [Compound 13, N′-hydroxy-4-(6-(4-(piperazin-1-yl)phenyl)pyrazolo[1,5-a]pyrimidin-3-yl)benzimidamide]
12 | – | 12.4 | 7.1 | 0.014 | > 10 | > 10 | – | > 10 | > 10 | c1cc(-c2nn[nH]n2)cc(-c2cnn3cc(-c4ccc(CCN5CCCCC5)cc4)cnc23)c1 [Compound 89, 3-(3-(2H-tetrazol-5-yl)phenyl)-6-(4-(2-(piperidin-1-yl)ethyl)phenyl)pyrazolo[1,5-a]pyrimidine]
13 | – | – | 0.27 | 0.045 | 1.4 | > 10 | 0.27 | > 10 | > 10 | CS(=O)(=O)c1cccc(-c2cnn3cc(-c4ccc(OC5(CN6CCCCC6)CC5)cc4)cnc23)c1 [Compound 134, 3-(3-(methylsulfonyl)phenyl)-6-(4-(1-(piperidin-1-ylmethyl)cyclopropoxy)phenyl)pyrazolo[1,5-a]pyrimidine]
14 | 9.16 | – | > 10 | > 10 | > 10 | > 10 | – | > 10 | > 10 | C[C@@H]1CNC[C@H](C)N1c1ccc(-c2cnc3c(-c4ccc(S(=O)(=O)C(F)(F)F)cc4)cnn3c2)cc1 [Compound 45, 6-(4-((2R,6S)-2,6-dimethylpiperazin-1-yl)phenyl)-3-(4-((trifluoromethyl)sulfonyl)phenyl)pyrazolo[1,5-a]pyrimidine]
15 | – | – | 0.033 | 0.003 | 0.39 | 9.8 | 0.18 | 4.4 | 8.2 | CS(=O)(=O)c1cccc(-c2cnn3cc(-c4ccc(CN5CCCC5)cc4)cnc23)c1 [Compound 164, 3-(3-(methylsulfonyl)phenyl)-6-(4-(pyrrolidin-1-ylmethyl)phenyl)pyrazolo[1,5-a]pyrimidine]
